Measurements as given in US20260355318A1, “MOLECULAR MACHINES FOR TREATMENT OF CANCER, FUNGAL INFECTIONS, OR BACTERIAL INFECTIONS” (priority 2022, published 2026).
In brackets after ≈: the same amount, converted by molar mass.

Key:
E. coli [1] = assay: Checkerboard interaction with antibiotics (MIC, FIC index), E. coli; type: cell-based, Escherichia coli
Method: To evaluate synergy between conventional antibiotics and MM in E. coli, the fractional inhibitory concentration (FIC) index (Hall et al., 1983) was determined using a modified checkerboard microtiter test in an 8-by-8 well configuration. Briefly, E. coli cell suspensions were prepared as described for MIC determination with an increasing concentration (0.1-40 μM) of the different MMs, followed by irradiation for 5 min at 146 mW cm^−2. […] The FIC was calculated after dividing the MIC of each antibiotic in combination with different MM by the MIC of the antibiotic alone. The FIC index, obtained by adding both FICs, was interpreted as indicating a synergistic effect if it was ≤0.5, as additive or indifferent if it was >0.5 and ≤2.0, and as antagonistic if it was >2.0 (Hall et al., 1983).

E. coli [2] = assay: MIC, E. coli; type: cell-based, Escherichia coli BW25113; conditions: E. coli, broth microdilution; for MIC: Escherichia coli, read-out: Antibiotic MIC
[3] = Estimated rotation rate after light activation; conditions: for estimated rotation rate after light activation: based on known motors with similar core skeletons
P. aeruginosa = assay: MIC, P. aeruginosa; type: cell-based, Pseudomonas aeruginosa
Method: (§1) The appropriate volume of an MM stock at 8 mM necessary to achieve a concentration ranging from 0.3125 to 40 μM was pipetted into a 2 mL microcentrifuge tube to which 1 mL of cell suspension prepared as previously described was added. Corresponding negative controls (DMSO only) were prepared in the same way. The mixture was gently mixed by pipetting and incubated in the dark at 30 or 37 ° C, depending on the strain, for 30 min with agitation (220 rpm). Afterward, MM- or DMSO-treated cells were dispensed in one well of a 24-well plate positioned in the center of the light beam (405 nm LED Light, Prizmatix, UHP—F-5-405) placed at the appropriate distance necessary to achieve the desired light intensity of 304 mW cm-2, 146 mW cm2 or 87 mW cm2, as measured with a handheld digital power meter console coupled to an S415C thermal power sensor head (Thorlabs, Newton, MA, USA). The temperature during irradiation was monitored using a thermocouple probe (Model SC-TT-K-30-36-PP; Omega Engineering, Inc., Stanford, CT, USA). Samples were agitated during irradiation. Dark controls were prepared as previously described except that no irradiation was provided.
(§2) For MIC determination, samples treated with a range of concentrations of the different MM, as described above and were irradiated one at a time for 5 min at 146 mW cm^−2 (43.8 J cm^−2), after which irradiated aliquots were collected and inoculated into 1 mL MHB in a 2 mL microcentrifuge tube. Samples were incubated overnight at 30 or 37 ° C, depending on the strain, without agitation. Corresponding non-irradiated samples and negative controls (without bacteria) were also included. The following day, cultures were inspected for growth and the MIC was identified. The experimental procedure used to determine the MIC of visible light-activated MMs is schematically depicted in FIG. 26.

S. aureus = assay: MIC, S. aureus; type: cell-based, Staphylococcus aureus; conditions: S. aureus, broth microdilution
Method: as §1, §2

A. baumannii = assay: MIC, A. baumannii; type: cell-based, Acinetobacter baumannii; conditions: Acinetobacter baumannii, read-out: Antibiotic MIC
Method: as §1, §2

C. albicans [4] = assay: Killing of C. albicans by MM 1 in de-energized, inhibited, uncoupled cells or with scavengers; type: cell-based, Candida albicans; conditions: for effect of scavenger on MM-induced killing: MM 1 2×MIC
Method: FIG. 8: Survival curves of de-energized versus exponential, fully energized cells of C. albicans treated with visible-light-activated MM 1 (2×MIC). Energy depletion of C. albicans was achieved by resuspending cells in de-energization buffer (1 μM antimycin A, 5 mM 2-deoxy-D-glucose, 50 mM HEPES buffer, pH 7.0) for 3 h, as described for the determination of efflux pump activity in Example 1. Survival curves were generated according to the procedure described in Example 1 for time-kill assays. The dashed line indicates the detection limit of the method. The results are expressed as the average of at least three independent replicates±the standard error of the mean.
FIG. 9: Effect of pre-treatment with drugs targeting different individual components of the electron transport chain (see table inset) on the killing of C. albicans by light-activated MM 1 (2×MIC). Survival curves were generated according to the procedure described in Example 1 for time-kill assays. The dashed line indicates the detection limit of the method. The results are expressed as the average of at least three independent replicates±the standard error of the mean.
FIG. 10: Effect of pre-treatment with the uncoupling agents carbonyl [COMPOUND LEFT OUT] 4-(trifluoromethoxy)phenylhydrazone (FCCP) and carbonyl [COMPOUND LEFT OUT] 3-chlorophenylhydrazone (CCCP) on the killing of C. albicans by light-activated MM 1 (2×MIC). Survival curves were generated according to the procedure described in Example 1 for time-kill assays. The dashed line indicates the detection limit of the method. The results are expressed as the average of at least three independent replicates #the standard error of the mean.
Survival curves were generated according to the procedure described in Example 1 for time-kill assays. The dashed line indicates the detection limit of the method. The results are expressed as the average of at least three independent replicates±the standard error of the mean.
FIGS. 12A-12C show the effect of growth in the presence of different reactive oxygen species (ROS) scavengers and the iron scavenger 2,2′-dipyridyl (DP) on MM 1-induced killing of C. albicans. […] The results are expressed as the average of at least three independent replicates±the standard error of the mean. (FIG. 12B) Growth curves of C. albicans in the presence and absence of the iron scavenger DP, determined by monitoring the absorbance at 630 nm over time in a microplate reader. […] (FIG. 12C) Time profiles of mitochondrial ROS levels in C. albicans grown with and without DP after treatment with visible-light-activated MM 1 (2×MIC), detected with the MitoROS™ 580 fluorescent probe, according to the experimental procedure described in Example 1. […]

C. albicans [5] = assay: MIC, visible-light-activated MMs and conventional antifungals, C. albicans; type: cell-based, Candida albicans (ATCC 18804); conditions: Candida albicans, read-out: MIC of antifungal agent
Method: C. albicans cell suspensions were incubated with increasing concentrations of MMs and irradiated with 405-nm light at 292 mW cm^−2 for 5 min (87.6 J cm^−2). The minimum inhibitory concentration (MIC) was defined as the MM concentration resulting in no visible fungal growth after irradiation with 87.6 J cm^−2 of 405-nm light.
Cell suspensions for susceptibility testing (MMs and conventional antifungals) were prepared per the Clinical & Laboratory Standards Institute (CLSI) guidelines (CLSI, 2017; CLSI, 2008). Before testing, yeasts (C. albicans and S. cerevisiae) were sub-cultured in Sabouraud Dextrose Agar-Emmons Modification (SDAE) plates and grown for 24 h at 30 °C. Five independent colonies from 24-h-old plates were collected and diluted to ~10^4 colony forming units (CFU) per mL in sterile saline (CLSI, 2017). Molds (A. fumigatus and the dermatophytes T. rubrum and M. gypseum) were sub-cultured on SDAE medium and incubated for 7 days at 28 °C. Conidia were recovered by covering the plates with sterile distilled water and scraping the colonies. The suspensions were filtered (8-μm pore size) and diluted in saline to ~10^4 CFU mL^−1 (Santos and Hamdan, 2005).
After a 30-min incubation in the dark, cell suspensions were transferred to small, sterilized glass beakers, which were then placed in a water bath. Each sample was irradiated with 405-nm light at 292 mW cm^−2 for 5 min, corresponding to a light dose of 87.6 J cm^−2, determined using an S415C thermal power sensor (Thorlabs, Newton, MA, USA). During irradiation, the cell suspensions were agitated with a small metal stirrer. A thermocouple probe (model SC-TT-K-30-36-PP; Omega Engineering, Inc., Stanford, CT, USA) was used to monitor the temperature during irradiation. Irradiated cell suspensions were inoculated in 3-(N-morpholino) propanesulfonic acid (MOPS)-buffered Roswell Park Memorial Institute Medium (RPMI) 1640 (pH 7.0). Tubes were incubated at 30 ° C for 48 h (yeasts) and 28 ° C for 7 days (molds). The antifungal or MM concentration resulting in no visible growth was defined as the minimum inhibitory concentration (MIC) (CLSI, 2017; CLSI, 2008). Similarly prepared cell suspensions were used to determine the MIC of conventional antifungals.

Molecule: CO[C@@H]1[C@@H](OC(N)=O)[C@@H](O)[C@H](Oc2ccc3c(O)c(NC(=O)c4ccc(O)c(CC=C(C)C)c4)c(=O)oc3c2C)OC1(C)C [Novobiocin]
- potentiation of antibiotic by MM pre-treatment (E. coli [1]; E. coli): up to 64 fold
- FIC index with MM (E. coli [1]; E. coli, MM and novobiocin): ≤ 0.5
- antibiotic MIC after pre-treatment with MM 1 (E. coli [1]; E. coli, light-activated MM 1): 0.0075 mg/L
- antibiotic MIC after pre-treatment with MM 5 (E. coli [1]; E. coli, light-activated MM 5): 0.0075 mg/L
- antibiotic MIC after pre-treatment with MM 6 (E. coli [1]; E. coli, light-activated MM 6): 0.015 mg/L
- MIC (E. coli [1]; Escherichia coli, 18 h, read-out: antibiotic MIC alone): 0.48 mg/L
- MIC (E. coli [2]): 64 mg/L (≈ 104 µM)

Molecule: C[C@@H]1Cc2ccc3c(NCCN)cccc3c2C1=C1c2ccccc2Sc2ccccc21 (racemic) [DL-5-903]
- estimated rotation rate after light activation [3]: 3 MHz

Molecule: Gentamicin [reference compound]
- Antibiotic MIC (P. aeruginosa; P. aeruginosa, broth microdilution): 1 μg per mL
- Antibiotic MIC (S. aureus): 2 μg per mL
- Antibiotic MIC (E. coli [2]): 1 μg per mL

Molecule: C[C@@H]1CSc2ccc3ccccc3c2/C1=C1\c2ccccc2Sc2cc(NCCN(C)C)ccc21 [ARV-3-202, reference compound]
- estimated rotation rate of slow MM [3]: ~ 10^−6 Hz

Molecule: O=C(O)c1cn(C2CC2)c2cc(N3CCNCC3)c(F)cc2c1=O [Ciprofloxacin, reference compound]
- MIC (E. coli [2]): 0.008 mg/L (≈ 0.0241 µM)

Molecule: COc1cc(Cc2cnc(N)nc2N)cc(OC)c1OC [Trimethoprim, reference compound]
- MIC (P. aeruginosa; Pseudomonas aeruginosa, read-out: Antibiotic MIC): 128 mg/L (≈ 441 µM)
- MIC (E. coli [2]): 1 mg/L (≈ 3.44 µM)

Molecule: CN(C)[C@@H]1C(O)=C(C(N)=O)C(=O)[C@@]2(O)C(O)=C3C(=O)c4c(O)cccc4[C@@](C)(O)[C@H]3C[C@@H]12 [Tetracycline, reference compound]
- MIC (A. baumannii): 8 mg/L (≈ 18 µM)

Molecule: COc1cc2c(c3ccccc13)/C(=C1\c3ccccc3Sc3ccc(NCCN(C)C)cc31)[C@H](C)C2 (racemic) [DL-5-872]
- estimated rotation rate after light activation [3]: 3 MHz

Molecule: CC1(C)CC(NC(=O)C[P+](c2ccccc2)(c2ccccc2)c2ccccc2)CC(C)(C)N1[O] [MitoTEMPO]
- effect of scavenger on MM-induced ROS generation (C. albicans [4]): reduced ROS generation
- effect of scavenger on MM-induced killing (C. albicans [4]): did not affect survival following MM treatment

Molecule: OC(Cn1cncn1)(Cn1cncn1)c1ccc(F)cc1F [Fluconazole (FLC), Fluconazole]
- MIC (C. albicans [5]): 0.5 mg/L

Molecule: C[C@@H]1Cc2ccc3c(N(C)CCN(C)C)cccc3c2C1=C1c2ccccc2Sc2ccccc21 (racemic) [DL-5-902]
- estimated rotation rate after light activation [3]: 3 MHz

Molecule: CC1(C)S[C@@H]2[C@H](NC(=O)[C@H](N)c3ccccc3)C(=O)N2[C@H]1C(=O)O [Ampicillin, reference compound]
- MIC (E. coli [2]): 0.063 mg/L (≈ 0.18 µM)

Molecule: Nc1nc(=O)[nH]cc1F [5-Fluorocytosine (5-FC), 5-Fluorocytosine]
- MIC (C. albicans [5]): 1 mg/L

Molecule: c1ccc(-c2ccccn2)nc1 [2,2′-dipyridyl]
- effect of scavenger on MM-induced ROS generation (C. albicans [4]): did not impact MM-induced ROS generation
- effect of scavenger on MM-induced killing (C. albicans [4]): mitigation of MM-induced killing

Molecule: C[C@@H]1Cc2ccc3c(NCCN(C)C)cccc3c2C1=C1c2ccccc2Sc2ccccc21 (racemic) [DL-5-901]
- estimated rotation rate after light activation [3]: 3 MHz
